From patent publication EP4813403A1, “USE OF GLP-1R/GIPR DOUBLE-TARGET AGONIST IN PREPARING ANIMAL DRUG” (Hangzhou Zhongmeihuadong Pharmaceutical Co., Ltd., priority 2023, dated 2025)

Columns and labels:
human GLP-1R = human GLP-1R (Homo sapiens, UniProt P43220); experiment: In vitro binding activity to human GLP-1 receptor ([125I]GLP-1 displacement, crude cell membranes); design: expressed in transfected cells; conditions: ratio of the Ki value of the endogenous ligand to the Ki value of the test compound; larger ratio = stronger binding
Sequence of human GLP-1R (P43220 24-463): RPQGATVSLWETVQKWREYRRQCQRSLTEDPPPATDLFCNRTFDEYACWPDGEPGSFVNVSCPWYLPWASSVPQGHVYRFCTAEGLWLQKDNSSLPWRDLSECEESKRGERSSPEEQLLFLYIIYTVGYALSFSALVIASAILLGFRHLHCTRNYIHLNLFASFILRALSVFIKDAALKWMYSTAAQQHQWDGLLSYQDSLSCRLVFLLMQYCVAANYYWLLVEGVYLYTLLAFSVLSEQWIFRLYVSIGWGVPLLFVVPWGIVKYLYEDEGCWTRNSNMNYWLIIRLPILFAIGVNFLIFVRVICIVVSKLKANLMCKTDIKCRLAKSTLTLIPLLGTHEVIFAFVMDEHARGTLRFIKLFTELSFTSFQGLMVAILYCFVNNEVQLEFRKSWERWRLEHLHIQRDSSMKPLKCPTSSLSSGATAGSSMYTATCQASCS
Procedure: 89 µL of membrane dissolved in binding buffer (50 mM Hepes, pH 7.4, 5 mM MgCl2 , 5 mM EDTA, 0.005% TWEEN, 0.005% HSA) was transferred to a 96-well test plate (5 µg/well). The compound was serially diluted in DMSO, and then, 1 µL of the diluted compound or 100% DMSO was added to the test plate containing the membrane solution. 10 µL of [^125I] […] The test plate was left at room temperature for 90 minutes. The membrane complexes were harvested into a GF/B plate pre-coated with 0.5% PEI by using a Cell Harvester, and washed for 3 times with 500 µL of pre-cooled elution buffer (50 mM Hepes, pH 7.4, 500 mM NaCl) at 4°C. After drying at 37°C for 2 hours, 50 µL of scintillation fluid was added to each well. The plate was read with a MicroBeta2 scintillation counter after sealing and settling for at least 1 hour so as to determine the membrane bound radioligand level.
The IC50 concentration was converted to Ki (Ki was the inhibition constant) using the Cheng-Prusoff equation.

[1] = Pharmacokinetics following single administration in SD rats; conditions: male, Sprague-Dawley, rat, in vivo, sc
Procedure: The compound was administrated to male SD rats (230-268 g, n=3) at a dose of 50.0 nmol/kg (s.c.) or 25.0 nmol/kg (i.v.). […] 30.0 μL of thawed plasma sample was taken. 150 μL of acetonitrile solution (containing 5 ng·mL^-1 Verapamil , 50 ng·mL^-1 Glibenclamide, 200 ng·mL^-1 Tolbutamide and 200 ng·mL^-1 Diclofenac) were added to precipitate protein. The mixture was vortexed for 5 minutes, and centrifuged at 3700 rpm for 8 minutes. 70.0 μL of the supernatant was taken, into which 70.0 μL of 0.5% aqueous formic acid solution was added. The mixture was vortexed for 5 minutes. 15 μL of the mixture solution was sampled and injected into the LC-MS/MS to determine the drug concentration in plasma. 20.0 μL of thawed plasma sample was taken. 60 μL of acetonitrile solution (containing 5 ng·mL^-1 Verapamil, 50 ng·mL^-1 Glibenclamide, 200 ng·mL^-1 Tolbutamide and 200 ng·mL^-1 Diclofenac) were added to precipitate protein. […] The mixture was vortexed for 10 minutes. 10.0 μL of the mixture solution was sampled and injected into the LC-MS/MS to determine the drug concentration in plasma. 30.0 μL of thawed plasma sample was taken. 150 μL of acetonitrile solution (containing 5 ng·mL^-1 Verapamil, 50 ng·mL^-1 Glibenclamide, 200 ng·mL^-1 Tolbutamide and 200 ng·mL^-1 Diclofenac) were added to precipitate protein. The mixture was vortexed for 5 minutes, and centrifuged at 3700 rpm for 8 minutes. 70.0 μL of the supernatant was taken, into which 70.0 μL of 0.5% aqueous formic acid solution was added. The mixture was vortexed for 5 minutes. 10.0 μL of the mixture solution was sampled and injected into the LC-MS/MS to determine the drug concentration in plasma. […] Table 5 Pharmacokinetic Parameters after Subcutaneous Injection of Different Polypeptide Compounds to Rats

[2] = Pharmacokinetics in cynomolgus monkeys; conditions: cynomolgus monkey, in vivo
Procedure: After subcutaneous or intravenous administration to cynomolgus monkeys, plasma was collected and the drug concentration in plasma was determined to illustrate the in vivo pharmacokinetic properties of the compound according to the present invention. […] 70.0 µL of thawed plasma sample was taken. 70 µL of acetonitrile (containing 1 ng/ml of the internal standard) was added to precipitate protein. […] The mixture was vortexed for 5 minutes. 10 µL of the mixture solution was sampled and injected into the LC-MS/MS to determine the drug concentration in plasma. […] Table 9 Average Pharmacokinetic Parameters after Single Subcutaneous Administration to Cynomolgus Monkeys

db/db mice = experiment: Multiple administration experiment on db/db mice; type: in vivo; conditions: for AUC 4-25 day Glu / D28 FBG(Fasting Blood Glucose) / Liver Weight / Serum ALT / Serum TBIL / Serum TG: db/db mice, s.c. every 3 days for 4 weeks, Mean±SEM, 6 mice
Procedure: "Minimum effective dose" as disclosed in the present invention refers to the minimum administration dose at which the drug effect is produced.
"Efficacy dose" as disclosed in the present invention refers to the administration dose at which the drug effect is produced.
In this study, 7-8 week old male db/db mice were used. The db/db mice were placed in an individual ventilated cage (IVC) facility with a controlled temperature (20-26°C) and humidity (40-70%) and a controlled 12:12 h light-dark cycle. The mice received food and water ad libitum. Blood were sampled at the tail tip, and the base blood glucose was measured by a Roche blood glucose meter. The mice were randomly divided into groups according to the initial blood glucose and initial body weight (n=6/group), and each group had similar body weight and blood glucose.
The mice were subcutaneously administrated every 3 days for 4 weeks. Subcutaneous administration was conducted on days 1, 4, 7, 10, 13, 16, 19, 22 and 25. Random blood glucose was recorded every 3 days throughout the study. On day 28, the fasting blood glucose was measured. Then the blood was collected by orbital blood sampling. After the orbital blood sampling, the animals were sacrificed, and the liver was taken and weighed. After 1 to 2 hours, the collected blood was centrifuged at 3000 rpm for 10 min to separate the serum. Biochemical indicators such as triglyceride (TG), alanine aminotransferase (ALT), and total bilirubin (TBIL) were determined with a biochemical analyzer. The data results were statistically analyzed using GraphPad Prism8, and the statistical differences among the groups were analyzed following T-Test. Significant differences were identified at p<0.05.

[3] = SD rats, subcutaneous injection, 50 nmol/kg
[4] = sc, cynomolgus monkeys, single subcutaneous administration, 25 nmol/kg
[5] = cynomolgus monkeys, single intravenous administration, 12.5 nmol/kg

Row | SMILES | GLP-1R Ki ratio (human GLP-1R) | AUC 4-25 day Glu (db/db mice; 3 nmol/kg) [mmol·days/L] | D28 FBG(Fasting Blood Glucose) (db/db mice; 3 nmol/kg) [mmol/L] | Liver Weight (db/db mice; 3 nmol/kg) [g] | Serum ALT (db/db mice; 3 nmol/kg) [U/L] | Serum TBIL (db/db mice; 3 nmol/kg) [µmol/L] | Serum TG (db/db mice; 3 nmol/kg) [mmol/L] | AUC 4-25 day Glu (db/db mice; 10 nmol/kg) [mmol·days/L] | D28 FBG(Fasting Blood Glucose) (db/db mice; 10 nmol/kg) [mmol/L] | Liver Weight (db/db mice; 10 nmol/kg) [g] | Serum ALT (db/db mice; 10 nmol/kg) [U/L] | Serum TBIL (db/db mice; 10 nmol/kg) [µmol/L] | Serum TG (db/db mice; 10 nmol/kg) [mmol/L] | AUC 4-25 day Glu (db/db mice; 30 nmol/kg) [mmol·days/L] | D28 FBG(Fasting Blood Glucose) (db/db mice; 30 nmol/kg) [mmol/L] | Liver Weight (db/db mice; 30 nmol/kg) [g] | Serum ALT (db/db mice; 30 nmol/kg) [U/L] | Serum TBIL (db/db mice; 30 nmol/kg) [µmol/L] | Serum TG (db/db mice; 30 nmol/kg) [mmol/L] | also measured
1 | CC[C@H](C)[C@H](NC(=O)C(C)(C)NC(=O)[C@H](Cc1ccc(O)cc1)NC(=O)[C@H](CC(=O)O)NC(=O)[C@H](CO)NC(=O)[C@@H](NC(=O)C(C)(Cc1ccccc1)NC(=O)[C@@H](NC(=O)CNC(=O)[C@H](CCC(=O)O)NC(=O)C(C)(C)NC(=O)[C@@H](N)Cc1ccc(O)cc1)[C@@H](C)O)[C@@H](C)O)C(=O)NC(C)(C)C(=O)N[C@@H](CC(C)C)C(=O)N[C@@H](CC(=O)O)C(=O)N[C@@H](CCCCN)C(=O)N[C@@H](CCC(N)=O)C(=O)N[C@@H](C)C(=O)N[C@@H](CCC(N)=O)C(=O)N[C@@H](C)C(=O)N[C@@H](CCC(=O)O)C(=O)N[C@@H](Cc1ccccc1)C(=O)N[C@H](C(=O)N[C@@H](CCCCN)C(=O)N[C@@H](Cc1c[nH]c2ccccc12)C(=O)N[C@@H](CC(C)C)C(=O)N[C@@H](CC(C)C)C(=O)N[C@@H](CCCCNC(=O)COCCOCCNC(=O)COCCOCCNC(=O)COCCOCCNC(=O)CC[C@H](NC(=O)CCCCCCCCCCCCCCCCCCCCC(=O)O)C(=O)O)C(=O)NCC(=O)NCC(=O)N1CCC[C@H]1C(=O)N[C@@H](CO)C(=O)N[C@@H](CO)C(=O)NCC(=O)N[C@@H](C)C(=O)N1CCC[C@H]1C(=O)N1CCC[C@H]1C(=O)N1CCC[C@H]1C(=O)N[C@@H](CO)C(=O)N[C@@H](CCCCN)C(N)=O)C(C)C (stereo partly drawn) [Compound P020] | 1.36 | 268.28 ± 24.64 | 9.6 ± 1.32 | 2.03 ± 0.09 | 214.56±43.83 | 1.54 ± 0.25 | 1.37 ± 0.12 | 290.78 ± 27.25 | 10.7 ± 1.62 | 2.09 ± 0.1 | 113.48±24.18 | 0.91 ± 0.05 | 1.07 ± 0.03 | 184.18 ± 22.44 | 8.22 ± 1.07 | 1.83 ± 0.16 | 112.47±16.69 | 0.95 ± 0.28 | 1.2 ± 0.07 | Tmax [1]: 24 h; half-life [1]: 17.9 ± 0.57 h; Tmax ([2]; sc): 22.7 ± 10.1 h; half-life ([2]; sc): 67.4 ± 9.47 h
2 | CC[C@H](C)[C@H](NC(=O)C(C)(C)NC(=O)[C@H](Cc1ccc(O)cc1)NC(=O)[C@H](CC(=O)O)NC(=O)[C@H](CO)NC(=O)[C@@H](NC(=O)C(C)(Cc1ccccc1)NC(=O)[C@@H](NC(=O)CNC(=O)[C@H](CCC(=O)O)NC(=O)C(C)(C)NC(=O)[C@@H](N)Cc1ccc(O)cc1)[C@@H](C)O)[C@@H](C)O)C(=O)NC(C)(C)C(=O)N[C@@H](CC(C)C)C(=O)N[C@@H](CC(=O)O)C(=O)N[C@@H](CCCCN)C(=O)N[C@@H](CCC(N)=O)C(=O)N[C@@H](C)C(=O)N[C@@H](CCC(N)=O)C(=O)N[C@@H](C)C(=O)N[C@@H](CCC(=O)O)C(=O)N[C@@H](Cc1ccccc1)C(=O)N[C@H](C(=O)N[C@@H](CCCCNC(=O)COCCOCCNC(=O)COCCOCCNC(=O)COCCOCCNC(=O)CC[C@H](NC(=O)CCCCCCCCCCCCCCCCCCCCC(=O)O)C(=O)O)C(=O)N[C@@H](Cc1c[nH]c2ccccc12)C(=O)N[C@@H](CC(C)C)C(=O)N[C@@H](CC(C)C)C(=O)N[C@@H](CCCCN)C(=O)NCC(=O)NCC(=O)N1CCC[C@H]1C(=O)N[C@@H](CO)C(=O)N[C@@H](CO)C(=O)NCC(=O)N[C@@H](C)C(=O)N1CCC[C@H]1C(=O)N1CCC[C@H]1C(=O)N1CCC[C@H]1C(=O)N[C@@H](CO)C(=O)N[C@@H](CCCCN)C(N)=O)C(C)C (stereo partly drawn) [Compound P016] | 0.63 | 256.38 ± 22 | 10.42 ± 1.46 | 2.24 ± 0.1 | 137.93±34.59 | 0.82 ± 0.13 | 1.21 ± 0.04 | 249.25 ± 41.42 | 12.5 ± 2.19 | 1.98 ± 0.12 | 128.94±16.93 | 1.22 ± 0.28 | 1.22 ± 0.24 | 163.98 ± 11.57 | 6.05 ± 0.41 | 1.78 ± 0.08 | 97.7±12.36 | 0.73 ± 0.16 | 1.2 ± 0.05 | AUC(0-inf) [1, 3]: 5.07 ± 0.262 µM·h; AUC(0-t) [1, 3]: 4.84 ± 0.27 µM·h; Cmax [1, 3]: 119 ± 7 nM; half-life ([1]; SD rats, subcutaneous injection, 50 nmol/kg, read-out: T1/2 (converted)): 14.1 ± 0.153 h; Tmax ([1]; SD rats, subcutaneous injection, 50 nmol/kg, read-out: Tmax): 24 h; AUC(0-inf) [2, 4]: 323 ± 44.6 µg·h/mL; AUC(0-t) [2, 4]: 319 ± 41.5 µg·h/mL; Cmax [2, 4]: 3000 ± 481 ng/mL; half-life ([2]; sc, cynomolgus monkeys, single subcutaneous administration, 25 nmol/kg, read-out: T1/2 (converted)): 60.4 ± 12.8 h; Tmax ([2]; sc, cynomolgus monkeys, single subcutaneous administration, 25 nmol/kg, read-out: Tmax): 40 ± 13.9 h; AUC(0-inf) [2, 5]: 80 ± 21.1 µg·h/mL; AUC(0-t) [2, 5]: 78.2 ± 20.3 µg·h/mL; C0 [2, 5]: 1700 ± 335 ng/mL; half-life ([2]; cynomolgus monkeys, single intravenous administration, 12.5 nmol/kg, read-out: T1/2 (converted)): 59.8 ± 8.95 h; Efficacy Dose (db/db mice; db/db mice multiple administrations, dose with blood glucose AUC p<0.05 vs. Vehicle): 3 nmol/kg
